For this assay, the system named is 168753-222-R-J1-PDC complex spheroid viability. The assay can be described thus: Anticancer human tumor 168753-222-R-J1-PDC patient-derived bladder carcinoma cell line growth inhibition [CLK]. The settings on record: for viability, T/C: stronger effect = lower value. In outline: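 Multi-cell-type spheroids combined patient-derived tumor cells with HUVEC endothelial cells and human mesenchymal stem cells. Paired agents were dosed in half-log steps down from about clinical Cmax, or from 10 microM where Cmax was unknown.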

The mark [1] stands for this setting: curve of first compound, second compound 0.0316 µM.
[2] abbreviates: curve of first compound, second compound 0.1 µM.
The mark [3] stands for this setting: curve of first compound, second compound 0.316 µM.
Where [4] appears, read: curve of first compound, second compound 1 µM.
[5] abbreviates: curve of first compound, second compound 3.16 µM.
Where [6] appears, read: curve of first compound, second compound 10 µM.

Experimental findings from PubChem BioAssay AID2060626 (Molecular Pharmacology Branch, DTP, NCI, 2025) are described below.

Values joined by “and” are separate entries in the source; they are usually repeats but may differ in a detail not shown here. Identical values can stand only once. Bounds are passed on as bounds.
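Also: viability measured after seven days of drug exposure.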
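For viability, T/C in this document: luminescence signal used as surrogate for viable cell amount; 100% = DMSO vehicle control wells.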

As a reminder, the IC50 is the concentration that inhibits the measured activity by half. One may read the viability, T/C as the result in the treated group divided by that in the control group, in per cent. For `CC(C)CC(NC(=O)C(Cc1ccccc1)NC(=O)c1cnccn1)B(O)O` (centres undefined) + CNC(=O)c1ccc(Nc2nc(OC3CCCC3)c3c(-c4ccc5nc(C)oc5c4)c[nH]c3n2)c(OC)c1, the IC50 was 2.09 nM under setting [1]; 2.31 nM under setting [2]; 1.8 nM under setting [3]; below 0.949 nM under setting [4]; below 0.949 nM under setting [5]; below 0.949 nM under setting [6]. The viability, T/C reads like this: (second compound 0.0316 µM, first compound 0.000949 µM) 98.6%; (second compound 0.0316 µM, first compound 0.003 µM) 27.7%; (second compound 0.0316 µM, first compound 0.00949 µM) 3.13%; (second compound 0.0316 µM, first compound 0.03 µM) 0.6%; (second compound 0.0316 µM, first compound 0.0949 µM) 1.66%; (second compound 0.0316 µM, first compound 0.3 µM) 0.44%. For the same compound, the viability, T/C was 89.3% (second compound 0.1 µM, first compound 0.000949 µM); 38.4% (second compound 0.1 µM, first compound 0.003 µM); 1.22% (second compound 0.1 µM, first compound 0.00949 µM); 0.27% (second compound 0.1 µM, first compound 0.03 µM); 0.53% (second compound 0.1 µM, first compound 0.0949 µM); 2.04% (second compound 0.1 µM, first compound 0.3 µM). The viability, T/C (second compound 0.316 µM, first compound 0.000949 µM) is 76.4%; the viability, T/C (second compound 0.316 µM, first compound 0.003 µM) is 29%; the viability, T/C (second compound 0.316 µM, first compound 0.00949 µM) is 0.8%; the viability, T/C (second compound 0.316 µM, first compound 0.03 µM) was 0.28%; the viability, T/C (second compound 0.316 µM, first compound 0.0949 µM) was 1.74%; the viability, T/C (second compound 0.316 µM, first compound 0.3 µM) was 0.24%. The viability, T/C was 38.4% (second compound 1 µM, first compound 0.000949 µM); 26.5% (second compound 1 µM, first compound 0.003 µM); 2.8% (second compound 1 µM, first compound 0.00949 µM); 0.43% (second compound 1 µM, first compound 0.03 µM); 2.22% (second compound 1 µM, first compound 0.0949 µM); 1.45% (second compound 1 µM, first compound 0.3 µM). The viability, T/C reads like this: (second compound 3.16 µM, first compound 0.000949 µM) 21.6%; (second compound 3.16 µM, first compound 0.003 µM) 20.2%; (second compound 3.16 µM, first compound 0.00949 µM) 0.44%; (second compound 3.16 µM, first compound 0.03 µM) 0.17%; (second compound 3.16 µM, first compound 0.0949 µM) 0.2%; (second compound 3.16 µM, first compound 0.3 µM) 0.35%. The viability, T/C was 21% (second compound 10 µM, first compound 0.000949 µM); 18.4% (second compound 10 µM, first compound 0.003 µM); 0.38% (second compound 10 µM, first compound 0.00949 µM); 1.09% (second compound 10 µM, first compound 0.03 µM); 1.85% (second compound 10 µM, first compound 0.0949 µM); 0.25% (second compound 10 µM, first compound 0.3 µM).
For `C=CC(=O)N1CCN(c2nc(=O)n(-c3c(C)ccnc3C(C)C)c3nc(-c4c(O)cccc4F)c(F)cc23)C(C)C1` (centres undefined) + CNC(=O)c1ccc(Nc2nc(OC3CCCC3)c3c(-c4ccc5nc(C)oc5c4)c[nH]c3n2)c(OC)c1, the half-inhibitory concentration (IC50) under setting [1] is above 10000 nM; the IC50 under setting [2] is above 10000 nM; the IC50 under setting [3] is above 10000 nM; the half-inhibitory concentration (IC50) under setting [4] was below 31.6 nM; the concentration for half-maximal inhibition (IC50) under setting [5] is below 31.6 nM; the IC50 under setting [6] is below 31.6 nM. Moreover, the viability, T/C is 107% (second compound 0.0316 µM, first compound 0.0316 µM); 96.7% (second compound 0.0316 µM, first compound 0.1 µM); 111% (second compound 0.0316 µM, first compound 0.316 µM); 128% (second compound 0.0316 µM, first compound 1 µM); 117% (second compound 0.0316 µM, first compound 3.16 µM); 113% (second compound 0.0316 µM, first compound 10 µM). Further, the viability, T/C (second compound 0.1 µM, first compound 0.0316 µM) was 104%; the viability, T/C (second compound 0.1 µM, first compound 0.1 µM) is 98.5%; the viability, T/C (second compound 0.1 µM, first compound 0.316 µM) was 97.5%; the viability, T/C (second compound 0.1 µM, first compound 1 µM) is 107%; the viability, T/C (second compound 0.1 µM, first compound 3.16 µM) was 102%; the viability, T/C (second compound 0.1 µM, first compound 10 µM) was 95.2%. Besides, the viability, T/C was 85.7% (second compound 0.316 µM, first compound 0.0316 µM); 83.5% (second compound 0.316 µM, first compound 0.1 µM); 74.8% (second compound 0.316 µM, first compound 0.316 µM); 78.3% (second compound 0.316 µM, first compound 1 µM); 94.1% (second compound 0.316 µM, first compound 3.16 µM); 82.2% (second compound 0.316 µM, first compound 10 µM). In addition, the viability, T/C runs as follows: (second compound 1 µM, first compound 0.0316 µM) 51.7%; (second compound 1 µM, first compound 0.1 µM) 35.4%; (second compound 1 µM, first compound 0.316 µM) 45.4%; (second compound 1 µM, first compound 1 µM) 47.8%; (second compound 1 µM, first compound 3.16 µM) 41.4%; (second compound 1 µM, first compound 10 µM) 30.9%. Also, the viability, T/C by setting is: (second compound 3.16 µM, first compound 0.0316 µM) 23.3%; (second compound 3.16 µM, first compound 0.1 µM) 25.6%; (second compound 3.16 µM, first compound 0.316 µM) 26.6%; (second compound 3.16 µM, first compound 1 µM) 26.3%; (second compound 3.16 µM, first compound 3.16 µM) 30.4%; (second compound 3.16 µM, first compound 10 µM) 19.4%. Moreover, the viability, T/C (second compound 10 µM, first compound 0.0316 µM) was 18.8%; the viability, T/C (second compound 10 µM, first compound 0.1 µM) was 23.5%; the viability, T/C (second compound 10 µM, first compound 0.316 µM) was 20.9%; the viability, T/C (second compound 10 µM, first compound 1 µM) is 24.5%; the viability, T/C (second compound 10 µM, first compound 3.16 µM) is 19.4%; the viability, T/C (second compound 10 µM, first compound 10 µM) was 16.4%.
As to `CCCS(=O)(=O)Nc1ccc(F)c(C(=O)c2c[nH]c3ncc(-c4ccc(Cl)cc4)cc23)c1F`, the viability, T/C runs as follows: (compound 0.0316 µM) 91.7% and 104%; (compound 0.1 µM) 108% and 107%; (compound 0.316 µM) 103% and 113%; (compound 1 µM) 132% and 115%; (compound 3.16 µM) 120% and 118%; (compound 10 µM) 71.7% and 76.3%. Besides, the IC50 (curve of compound) is above 10000 nM.
For the compound `CCc1c2c(nc3ccc(O)cc13)-c1cc3c(c(=O)n1C2)COC(=O)[C@]3(O)CC`, the viability, T/C reads like this: (compound 0.00316 µM) 86.5% and 95.1%; (compound 0.01 µM) 49.5% and 86.4%; (compound 0.0316 µM) 31.5% and 79.7%; (compound 0.1 µM) 32.8% and 59.9%; (compound 0.316 µM) 15.3% and 52.8%; (compound 1 µM) 12% and 15.8%.
As for `CC(=O)O[C@H]1C(=O)[C@@]2(C)[C@H]([C@H](OC(=O)c3ccccc3)[C@]3(O)C[C@H](OC(=O)[C@H](O)[C@@H](NC(=O)c4ccccc4)c4ccccc4)C(C)=C1C3(C)C)[C@]1(OC(C)=O)CO[C@@H]1C[C@@H]2O`, the viability, T/C was 22.5% and 55.4% (compound 0.0316 µM); 10.6% and 32.8% (compound 0.1 µM); 11.2% and 23.4% (compound 0.316 µM); 12.6% and 36.7% (compound 1 µM); 16% and 32.8% (compound 3.16 µM); 20.1% and 42.8% (compound 10 µM). Besides, for the setting “curve of compound”, the IC50 was below 31.6 nM.
